Legend:
Experiment in all cases: relative viability (nuclei count vs DMSO), 5 days (fraction); higher = more cells survive
[1] = compound: C1CNCCC1C2=CC(=NN2)C3=CC=NC=C3 + N=C(N)NC(=N)NCCc1ccccc1 [Phenformin] (partner 250 µM)
Procedure, shortened: (§1)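 One day after seeding in 1536-well plates, lung cancer cell lines were dosed by pin tool. Dosing was either single-drug or a fixed anchor-drug dose plus five library-drug doses (not always all listed) in √10 steps. After 5 days, nuclei were stained in one fix-and-stain step and counted on 4× images, and relative viability is the nuclei count of treated wells over that of vehicle wells, given as the median of duplicate plates.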

[2] = compound: C[C@@H](N)c1ccc(C(=O)Nc2ccnc3[nH]ccc23)cc1 + C[C@@H](Oc1cc(-c2cnn(C3CCNCC3)c2)cnc1N)c1c(Cl)ccc(F)c1Cl [Crizotinib] (partner 1 µM)
Procedure, shortened: as §1

Tanzisertib + Lapatinib = compound: O[C@H]1CC[C@H](Nc2ncc3nc(Nc4c(F)cc(F)cc4F)n([C@H]4CCOC4)c3n2)CC1 [Tanzisertib] + CS(=O)(=O)CCNCc1ccc(-c2ccc3ncnc(Nc4ccc(OCc5cccc(F)c5)c(Cl)c4)c3c2)o1 [Lapatinib] (partner 2 µM)
Procedure, shortened: as §1

[3] = compound: C[C@@H](N)c1ccc(C(=O)Nc2ccnc3[nH]ccc23)cc1 + CCNC(=O)c1noc(-c2cc(C(C)C)c(O)cc2O)c1-c1ccc(CN2CCOCC2)cc1 [Luminespib] (partner 0.01 µM)
Procedure, shortened: as §1

Row | Cell Line | relative viability ([1]; first compound 0.08 µM) | relative viability ([1]; first compound 0.8 µM) | relative viability ([1]; first compound 2.53 µM) | relative viability ([1]; first compound 8 µM) | relative viability ([2]; first compound 0.04 µM) | relative viability ([2]; first compound 0.1265 µM) | relative viability ([2]; first compound 0.4 µM) | relative viability ([2]; first compound 4 µM) | relative viability (Tanzisertib + Lapatinib; first compound 0.08 µM) | relative viability (Tanzisertib + Lapatinib; first compound 0.253 µM) | relative viability (Tanzisertib + Lapatinib; first compound 0.8 µM) | relative viability (Tanzisertib + Lapatinib; first compound 2.53 µM) | relative viability (Tanzisertib + Lapatinib; first compound 8 µM) | relative viability ([3]; first compound 0.04 µM) | relative viability ([3]; first compound 0.1265 µM) | relative viability ([3]; first compound 0.4 µM) | relative viability ([3]; first compound 1.265 µM) | relative viability ([3]; first compound 4 µM) | relative viability ([2]; first compound 1.265 µM)
1 | HCC-366 | 0.653 | 0.656 | 0.618 | 0.659 | 0.71 | 0.536 | 0.683 | 0.483 | 0.985 | 1.06 | 1.1 | 1.07 | 1.03 |  |  |  |  |  | 
2 | HCC-827 | 0.375 | 0.392 | 0.414 | 0.358 | 0.928 | 0.957 | 0.925 | 0.795 | 0.19 | 0.186 | 0.201 | 0.24 | 0.183 | 0.786 | 0.686 | 0.698 | 0.848 | 0.608 | 0.941
3 | HOP-62 | 0.602 | 0.844 | 0.756 | 0.621 | 0.685 | 0.798 | 0.908 | 0.709 | 1.25 | 0.85 | 1.06 | 1.12 | 0.511 | 0.732 | 0.812 | 0.94 | 0.893 | 0.817 | 0.853
4 | IA-LM |  |  |  |  | 1.02 | 0.937 | 1.17 | 0.938 | 0.855 | 0.732 |  | 1.03 | 1.03 |  |  |  |  |  | 1.08
5 | LC-2-ad |  | 0.676 | 0.639 | 0.612 | 0.43 | 0.486 | 0.501 | 0.409 | 0.991 | 0.978 | 1.1 | 0.989 | 0.868 | 0.864 | 0.987 | 0.837 |  | 0.659 | 0.438
6 | LCLC-97TM1 | 0.328 | 0.511 | 0.437 | 0.396 | 0.32 | 0.322 | 0.463 | 0.638 |  | 0.92 | 0.696 | 0.568 | 0.863 | 0.828 | 0.826 | 1.06 | 0.908 | 0.857 | 0.961
7 | LCLC-103H | 0.318 | 0.351 | 0.361 | 0.342 | 1.19 | 1.02 | 1.13 | 0.903 |  |  |  |  |  | 1.15 | 0.914 | 0.956 | 0.911 | 0.69 | 1.01
8 | LK-2 | 0.354 | 0.377 | 0.547 | 0.494 | 0.227 | 0.251 | 0.224 | 0.218 | 1.1 | 0.895 | 1.12 | 0.996 | 0.977 | 0.202 |  | 0.218 |  | 0.238 | 
9 | LOU-NH91 | 0.771 | 0.787 | 0.867 | 0.781 | 0.691 | 0.727 | 0.691 | 0.635 | 0.782 | 0.775 | 0.64 | 0.771 | 0.716 | 0.283 | 0.334 | 0.381 | 0.33 | 0.316 | 0.668
10 | LU99A | 0.748 | 0.877 | 0.956 | 0.874 | 0.55 | 0.558 | 0.58 | 0.47 | 1.1 | 0.934 | 0.934 | 1.11 | 1.2 |  | 0.303 | 0.323 | 0.251 | 0.292 | 0.462
